Assays:
Assay type in all cases: biochemical
FXa = FXa (Homo sapiens, UniProt P00742); assay: Related protease inhibition: FXa, fluorogenic substrate; details: fluorogenic substrate at Km, 25° C.; H1-H3 = % activity at 40 μM
Procedure: (§1) Human serine protease enzyme Plasma Kallikrein, KLK1, FXa, Plasmin, Thrombin and Trypsin were assayed for enzymatic activity using an appropriate fluorogenic substrate at Km concentration, FXIa at fixed substrate concentration of 100 μM and various concentrations of the test compound.

[1] = biological target: T1, Human Factor XIIa (hFXIIa) (Homo sapiens, UniProt P00748); assay: Determination of Human Factor XIIa (hFXIIa) inhibition, fluorogenic substrate IC50 assay; details: fluorogenic substrate H-DPro-Phe-Arg-AFC at Km, 25° C., read-out: Human FXIIa IC50
T1 construct: purchased Enzyme Research Laboratories
T1 sequence (P00748 373-615 limits assumed): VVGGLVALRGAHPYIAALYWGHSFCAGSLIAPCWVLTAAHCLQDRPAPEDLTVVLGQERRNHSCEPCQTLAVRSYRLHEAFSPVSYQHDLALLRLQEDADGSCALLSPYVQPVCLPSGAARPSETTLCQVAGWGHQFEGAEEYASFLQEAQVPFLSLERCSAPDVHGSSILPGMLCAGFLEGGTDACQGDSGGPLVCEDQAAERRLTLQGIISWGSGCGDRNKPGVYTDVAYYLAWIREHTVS
T1 sequence (P00748 20-372 partner limits assumed): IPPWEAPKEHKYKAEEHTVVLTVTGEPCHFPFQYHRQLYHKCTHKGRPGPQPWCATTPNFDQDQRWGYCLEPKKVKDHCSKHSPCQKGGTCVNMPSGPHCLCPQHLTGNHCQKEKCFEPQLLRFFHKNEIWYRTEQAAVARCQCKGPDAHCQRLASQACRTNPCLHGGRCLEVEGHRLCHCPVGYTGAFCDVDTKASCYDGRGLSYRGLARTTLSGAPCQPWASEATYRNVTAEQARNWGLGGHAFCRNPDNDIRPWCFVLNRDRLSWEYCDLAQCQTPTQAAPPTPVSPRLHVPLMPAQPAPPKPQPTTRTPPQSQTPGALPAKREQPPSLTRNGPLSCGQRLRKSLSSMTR
Procedure: Determination of Human Factor XIIa (hFXIIa) inhibition
The Km for the cleavage of the substrate by hFXIIa was determined by standard transformation of the Michaelis-Menten equation, with subsequent inhibition assays performed at substrate Km concentration.

Thrombin = Thrombin (Homo sapiens, UniProt P00734); assay: Related protease inhibition: Thrombin, fluorogenic substrate; details: fluorogenic substrate at Km, 25° C., H1-H3 = % activity at 40 μM
Procedure: as §1

Chain of FXa (P00742 235-488 limits assumed): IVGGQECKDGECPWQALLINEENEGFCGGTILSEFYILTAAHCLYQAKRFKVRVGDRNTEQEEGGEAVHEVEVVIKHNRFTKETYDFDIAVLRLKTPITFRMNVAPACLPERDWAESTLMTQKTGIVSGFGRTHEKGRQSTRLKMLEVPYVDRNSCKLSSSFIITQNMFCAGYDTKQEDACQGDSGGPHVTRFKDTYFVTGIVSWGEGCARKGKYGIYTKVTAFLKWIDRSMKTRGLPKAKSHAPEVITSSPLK
Chain of FXa (P00742 41-179 partner limits assumed): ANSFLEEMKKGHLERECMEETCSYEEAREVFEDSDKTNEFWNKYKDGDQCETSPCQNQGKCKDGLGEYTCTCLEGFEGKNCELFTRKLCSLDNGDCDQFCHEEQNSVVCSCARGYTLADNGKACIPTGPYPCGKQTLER

| IC50 (FXa) [µM] | IC50 [1] [µM] | activity at 40 µM (Thrombin; read-out: IC50 (human thrombin) nM) [%] | IC50 (Thrombin) [µM] | Structure (SMILES) |
| --- | --- | --- | --- | --- |
| 10 to 40 | 0.3 to 1 | 20 to 80 |  | CCNC(=O)c1nn(-c2cccc(Cl)c2)c2c1CCN(c1cccc(N3C(=O)C[C@@H]4C[C@@H]43)c1)C2=O (single isomer, unassigned) [Example 1408, 1-(3-Chlorophenyl)-N-ethyl-7-oxo-6-(3-((1S*,5S*)-3-oxo-2-azabicyclo[3.1.0]hexan-2-yl)phenyl)-4,5,6,7-tetrahydro-1H-pyrazolo[3,4-c]pyridine-3-carboxamide] |
| 3 to 10 | 0.3 to 1 |  | > 100 | CN1CCc2ccc(N3CCc4c(C(=O)NCC5CCOCC5)nn(-c5cccc(Cl)c5)c4C3=O)cc2C1 [Example 1027, 1-(3-chlorophenyl)-6-(2-methyl-1,2,3,4-tetrahydroisoquinolin-7-yl)-7-oxo-N-((tetrahydro-2H-pyran-4-yl)methyl)-4,5,6,7-tetrahydro-1H-pyrazolo[3,4-c]pyridine-3-carboxamide] |
| 10 to 40 | 0.1 to 0.3 |  | > 100 | CC(C)N1CCc2ccc(N3CCc4c(C(=O)NCC5CC5)nn(-c5cccc(Cl)c5)c4C3=O)cc2C1 [Example 1035, 1-(3-chlorophenyl)-N-(cyclopropylmethyl)-6-(2-isopropyl-1,2,3,4-tetrahydroisoquinolin-7-yl)-7-oxo-4,5,6,7-tetrahydro-1H-pyrazolo[3,4-c]pyridine-3-carboxamide] |
| > 100 | 0.01 to 0.1 |  | > 100 | COCCN1CCc2ccc(N3CCc4c(C(=O)NCC5CC5)nn(-c5cccc(Cl)c5)c4C3=O)cc2C1 [Example 1037, 1-(3-chlorophenyl)-N-(cyclopropylmethyl)-6-(2-(2-methoxyethyl)-1,2,3,4-tetrahydroisoquinolin-7-yl)-7-oxo-4,5,6,7-tetrahydro-1H-pyrazolo[3,4-c]pyridine-3-carboxamide] |
| 3 to 10 | 0.1 to 0.3 |  | > 100 | CN1CCc2ccc(N3CCc4c(C(=O)NC5CCCC5)nn(-c5cccc(Cl)c5)c4C3=O)cc2C1 [Example 1044, 1-(3-chlorophenyl)-N-cyclopentyl-6-(2-methyl-1,2,3,4-tetrahydroisoquinolin-7-yl)-7-oxo-4,5,6,7-tetrahydro-1H-pyrazolo[3,4-c]pyridine-3-carboxamide] |
| 10 to 40 | 0.01 to 0.1 |  |  | Cc1ccncc1CNC(=O)c1nn(-c2cccc(Cl)c2)c2c(=O)n(-c3ccc4c(c3)CN(CCO)CC4)c(C)nc12 [Example 3011, 1-(3-chlorophenyl)-6-(2-(2-hydroxyethyl)-1,2,3,4-tetrahydroisoquinolin-7-yl)-5-methyl-N-((4-methylpyridin-3-yl)methyl)-7-oxo-6,7-dihydro-1H-pyrazolo[4,3-d]pyrimidine-3-carboxamide] |
| 1 to 3 | 0.1 to 0.3 |  |  | Cc1nc2c(C#N)nn(-c3cccc(Cl)c3)c2c(=O)n1-c1ccc2c(c1)CN(CCO)CC2 [Example 3012, 1-(3-chlorophenyl)-6-(2-(2-hydroxyethyl)-1,2,3,4-tetrahydroisoquinolin-7-yl)-5-methyl-7-oxo-6,7-dihydro-1H-pyrazolo[4,3-d]pyrimidine-3-carbonitrile] |
| 0.3 to 1 | 0.1 to 0.3 |  |  | N#Cc1nn(-c2cccc(Cl)c2)c2c(=O)n(-c3ccc4c(c3)CN(CCO)CC4)cnc12 [Example 3013, 1-(3-chlorophenyl)-6-(2-(2-hydroxyethyl)-1,2,3,4-tetrahydroisoquinolin-7-yl)-7-oxo-6,7-dihydro-1H-pyrazolo[4,3-d]pyrimidine-3-carbonitrile] |
| > 40 | 0.1 to 0.3 |  |  | Cc1nc2c(C(=O)NCC3CC3)nn(-c3cccc(Cl)c3)c2c(=O)n1-c1ccc2c(c1)C(=O)N(C)CC2 [Example 3014, 1-(3-chlorophenyl)-N-(cyclopropylmethyl)-5-methyl-6-(2-methyl-1-oxo-1,2,3,4-tetrahydroisoquinolin-7-yl)-7-oxo-6,7-dihydro-1H-pyrazolo[4,3-d]pyrimidine-3-carboxamide] |
| > 40 | 0.01 to 0.1 |  |  | Cc1cc(CNC(=O)c2nn(-c3cccc(Cl)c3)c3c(=O)n(-c4ccc5c(c4)C(=O)N(CCO)CC5)c(C)nc23)nn1C [Example 3015, 1-(3-chlorophenyl)-N-((1,5-dimethyl-1H-pyrazol-3-yl)methyl)-6-(2-(2-hydroxyethyl)-1-oxo-1,2,3,4-tetrahydroisoquinolin-7-yl)-5-methyl-7-oxo-6,7-dihydro-1H-pyrazolo[4,3-d]pyrimidine-3-carboxamide] |
| > 40 | 0.1 to 0.3 |  |  | Cc1nc2c(C(=O)NCC3CC3)nn(-c3cccc(Cl)c3)c2c(=O)n1-c1ccc2c(c1)C(=O)N(CCO)CC2 [Example 3016, 1-(3-chlorophenyl)-N-(cyclopropylmethyl)-6-(2-(2-hydroxyethyl)-1-oxo-1,2,3,4-tetrahydroisoquinolin-7-yl)-5-methyl-7-oxo-6,7-dihydro-1H-pyrazolo[4,3-d]pyrimidine-3-carboxamide] |
| 10 to 40 | 0.01 to 0.1 |  |  | Cc1ccncc1CNC(=O)c1nn(-c2cccc(Cl)c2)c2c(=O)n(-c3ccc4c(c3)C(=O)N(CCO)CC4)c(C)nc12 [Example 3017, 1-(3-chlorophenyl)-6-(2-(2-hydroxyethyl)-1-oxo-1,2,3,4-tetrahydroisoquinolin-7-yl)-5-methyl-N-((4-methylpyridin-3-yl)methyl)-7-oxo-6,7-dihydro-1H-pyrazolo[4,3-d]pyrimidine-3-carboxamide] |
| 10 to 40 | 1 to 3 |  |  | Cc1nc2c(C(=O)O)nn(-c3cccc(Cl)c3)c2c(=O)n1-c1ccc2c(c1)C(=O)N(CCO)CC2 [Example 3018, 1-(3-chlorophenyl)-6-(2-(2-hydroxyethyl)-1-oxo-1,2,3,4-tetrahydroisoquinolin-7-yl)-5-methyl-7-oxo-6,7-dihydro-1H-pyrazolo[4,3-d]pyrimidine-3-carboxylic acid] |
| 3 to 10 | 0.1 to 0.3 |  |  | CCOC(=O)c1nn(-c2cccc(Cl)c2)c2c(=O)n(-c3ccc4c(c3)C(=O)N(CCO)CC4)c(C)nc12 [Example 3019, ethyl 1-(3-chlorophenyl)-6-(2-(2-hydroxyethyl)-1-oxo-1,2,3,4-tetrahydroisoquinolin-7-yl)-5-methyl-7-oxo-6,7-dihydro-1H-pyrazolo[4,3-d]pyrimidine-3-carboxylate] |
| 10 to 40 | 0.1 to 0.3 |  |  | Cc1cc(CNC(=O)c2nn(-c3cccc(Cl)c3)c3c(=O)n(-c4ccc5c(c4)C(=O)N(C)CC5)c(C)nc23)n[nH]1 [Example 3020, 1-(3-chlorophenyl)-5-methyl-6-(2-methyl-1-oxo-1,2,3,4-tetrahydroisoquinolin-7-yl)-N-((5-methyl-1H-pyrazol-3-yl)methyl)-7-oxo-6,7-dihydro-1H-pyrazolo[4,3-d]pyrimidine-3-carboxamide] |
| 10 to 40 | 0.1 to 0.3 |  |  | Cc1cc(CNC(=O)c2nn(-c3cccc(Cl)c3)c3c(=O)n(-c4ccc5c(c4)C(=O)N(C)CC5)c(C)nc23)nn1C [Example 3021, 1-(3-chlorophenyl)-N-((1,5-dimethyl-1H-pyrazol-3-yl)methyl)-5-methyl-6-(2-methyl-1-oxo-1,2,3,4-tetrahydroisoquinolin-7-yl)-7-oxo-6,7-dihydro-1H-pyrazolo[4,3-d]pyrimidine-3-carboxamide] |
| 10 to 40 | 0.3 to 1 |  |  | CCNC(=O)c1nn(-c2cccc(Cl)c2)c2c(=O)n(-c3ccc4c(c3)C(=O)N(C)CC4)c(C)nc12 [Example 3022, 1-(3-chlorophenyl)-N-ethyl-5-methyl-6-(2-methyl-1-oxo-1,2,3,4-tetrahydroisoquinolin-7-yl)-7-oxo-6,7-dihydro-1H-pyrazolo[4,3-d]pyrimidine-3-carboxamide] |
| > 40 | 3 to 10 |  |  | Cc1cc(CNC(=O)c2nn(-c3cccc(Cl)c3)c3c2CN(c2ccc4c(c2)CN(CCO)CC4)C3=O)nn1C [Example 4001, 1-(3-Chlorophenyl)-N-[(1,5-dimethylpyrazol-3-yl)methyl]-5-[2-(2-hydroxyethyl)-3,4-dihydro-1H-isoquinolin-7-yl]-6-oxo-4H-pyrrolo[3,4-c]pyrazole-3-carboxamide] |
| > 40 | 1 to 3 |  |  | O=C(Cn1nc(-c2cccc(Cl)c2)c2c1CCN(c1ccc3c(c1)CN(CCO)CC3)C2=O)NCC1CC1 [Example 4002, 2-[3-(3-Chlorophenyl)-5-[2-(2-hydroxyethyl)-3,4-dihydro-1H-isoquinolin-7-yl]-4-oxo-6,7-dihydropyrazolo[4,3-c]pyridin-1-yl]-N-(cyclopropylmethyl) acetamide] |

— patent US20260132132A1, “3A,4,5,6-TETRAHYDRO-1 H-PYRAZOLO[3,4-C]PYRIDIN-7(7AH)-ONE DERIVATIVES AS FACTOR XIIA INHIBITORS” (KALVISTA PHARMACEUTICALS LIMITED, priority 2022, published 2026)
